Assay results as given in patent publication US11716994B2, “Combinations of Yersinia entomophaga and pesticides or other substances” (priority 2017, dated 2023).
Where “and” joins values, the source holds several entries; their conditions need not be identical. Equal entries are not always repeated. Where two headings read alike, the source gives them in different places.

Columns and labels:
Yersinia entomophaga = test: CFU counts after exposure of Yersinia entomophaga to insecticides; assay type: cell-based; conditions: 1 hour contact
Source text: To test combinations of Yersinia entomophaga and pesticides for their ability to produce a pesticidal effect, or an effect on plant growth or yield, we first put various insecticides in contact with Yersinia to identify insecticides that had minimal toxicity to Yersinia entomophaga. The logic was that, if Yersinia entomophaga is to function well in combination with a chemical insecticide, the chemical insecticide would ideally have low or no effect on the ability of Yersinia entomophaga to survive, grow and/or to function.
To perform this study, we selected amounts of various insecticides based on the percent of the specific insecticide in the insecticide composition obtained from a manufacturer. We also considered the application rate of the particular insecticide, as recommended by the manufacturer. […] Generally, the 1× amount was considered possibly the lowest amount of insecticide that may be considered as an effective amount for use in the combinations disclosed herein. For each insecticide, we also used a higher amount of insecticide (generally a 5× or 10× amount).
The 1× and 5×/10× amounts of each insecticide were added to tubes along with 1 ml of ethyl acetate. The tubes were mixed until the insecticides dissolved. The tubes were left open in a fume hood overnight to allow the ethyl acetate to evaporate. The insecticide remained in the tubes, as a solid coat on the interior surface of the tubes.
A growing culture of Yersinia entomophaga, grown in LB medium, was diluted and 1 ml of the diluted culture was added to each tube containing the dried insecticide. The tubes were mixed and then left on the bench top for 1 hour. Then, 100 μl from each tube was plated onto LB plates in triplicate in CFU assays. Plates were incubated at 25° C. for 48 hours and colonies were counted.

cabbage looper [1] = test system: cabbage looper
cabbage looper [2] = test: whole plant or invertebrate; conditions: Trichoplusia ni, foliar
cabbage looper [3] = conditions: for LT50 Chem. / % Mort. Chem.: Cabbage Looper
Procedure: (§2) To produce cell free filtrates, cultures of Yersinia entomophaga grown in LB medium were centrifuged at 11,448 (g) for 10 minutes. The supernatant was decanted from the centrifuged pellet and filtered through a 0.22 μm filter. Assays were performed to determine concentrations of Yen-TC (toxin complex) using ELISA, and chitinase by measuring chitinase activity on specific substrates. […] This was done to estimate relative potency of the cell free filtrates. Insects were first pre-screened with a range of dilutions of cell free filtrates to select a concentration that provided moderate activity. […] Based on these initial screens, undiluted cell free filtrate was used for cabbage looper, fall armyworm, black cutworm, and Colorado potato beetle. […] In each of the Examples below, this is expressed as 1%.
Cabbage leaf disks were dipped in either acetone (controls and Y. entomophaga alone treatments) or novaluron (Sigma 32419) at 1.0 mg/L in acetone. These were set to dry for 1 hr. […] After the cabbage disks had dried for 1 hr, a single 3rd instar cabbage looper was added to each individual cabbage disk. A total of 20 insects were evaluate for each treatment. Insects were observed daily and scored as live or dead.

black cutworm [4] = test: Leaf disk mortality assay, Y. entomophaga cells with chemical insecticides
diamondback moth = test: whole plant or invertebrate; conditions: indoxacarb […]
Source text: (§1) These were set to dry for 1 hr.
as §1
These were set to dry for 1 hr. Cabbage disks were then dipped in either 1% Luria broth (LB) media solution (controls and thiacloprid alone treatments) or in 1% cell free filtrate from a culture Y. entomophaga isolate O24G3R (Y. entomophaga alone or in combination with thiacloprid treatments).

black cutworm [5] = conditions: indoxacarb 0.53 mg/L
Procedure: as §2
Cabbage leaf disks were dipped in either acetone (controls and Y. entomophaga alone treatments) or in indoxacarb (Sigma 33969) at 0.53 mg/L in acetone. These were set to dry for 1 hr. […] After the cabbage disks had dried for 1 hr, a single 2nd instar black cutworm was added to each individual cabbage disk. A total of 20 insects were evaluate for each treatment. Insects were observed daily and scored as live or dead.
Cabbage leaf disks were dipped in either acetone (controls and Y. entomophaga alone treatments) or in flubendiamide (Sigma 32801) at 0.59 mg/L in acetone. These were set to dry for 1 hr. […] After the cabbage disks had dried for 1 hr, a single 2nd instar black cutworm was added to each individual cabbage disk. A total of 20 insects were evaluate for each treatment. Insects were observed daily and scored as live or dead.

fall armyworm [6] = test: Leaf disk mortality assay, Y. entomophaga cells with chemical insecticides; conditions: for % Mort. Chem. / LT50 Chem.: fall armyworm; for mortality at 4 µg/mL: Spodoptera frugiperda, foliar
fall armyworm [7] = conditions: fipronil 12 mg/L
Procedure: To produce cell free filtrates, cultures of Yersinia entomophaga grown in LB medium were centrifuged at 11,448 (g) for 10 minutes. The supernatant was decanted from the centrifuged pellet and filtered through a 0.22 μm filter. Assays were performed to determine concentrations of Yen-TC (toxin complex) using ELISA, and chitinase by measuring chitinase activity on specific substrates. […] This was done to estimate relative potency of the cell free filtrates. Insects were first pre-screened with a range of dilutions of cell free filtrates to select a concentration that provided moderate activity. […] Based on these initial screens, undiluted cell free filtrate was used for cabbage looper, fall armyworm, black cutworm, and Colorado potato beetle.
Cabbage leaf disks were dipped in either acetone (controls and Y. entomophaga alone treatments) or fipronil (Sigma 46451) at 12 mg/L in acetone. These were set to dry for 1 hr. […] After the cabbage disks had dried for 1 hr, a single 3rd instar fall armyworm was added to each individual cabbage disk. A total of 20 insects were evaluated for each treatment. Insects were observed daily and scored as live or dead.
Cabbage leaf disks were dipped in either acetone (controls and Y. entomophaga alone treatments) or esfenvalerate (Sigma 46277) at 56 mg/L in acetone. These were set to dry for 1 hr. […] After the cabbage disks had dried for 1 hr, a single 3rd instar fall armyworm was added to each individual cabbage disk. A total of 20 insects were evaluate for each treatment. Insects were observed daily and scored as live or dead.

[8] = 3rd instar, indoxacarb 0.53 mg/L, isolate O43NEW 1×10^6 cfu/mL
[9] = 3rd instar, indoxacarb 0.53 mg/L, isolate O43NEW 1×10^4 cfu/mL

Compound: CNC(=O)ON=C(C)SC [Methomyl]
- Average CFU (Yersinia entomophaga; 0.3 mg insecticide): 192 CFU
- Average CFU (Yersinia entomophaga; 3.4 mg insecticide): 0 CFU
- LT50 Chem. (cabbage looper [1]; cabbage looper, Methomyl alone 30 mg/L): 5.84 days
- % Mort. Chem. (cabbage looper [1]; in vivo): 12%
- LT50 (95% confidence intervals) in days (cabbage looper [1]; in vivo): 5.84 (4.99-6.88) days
- mortality at 30 µg/mL (cabbage looper [2]; 24 h, read-out: % Mortality (1DAT)): 4%
- mortality at 30 µg/mL (cabbage looper [2]; 48 h, read-out: % Mortality (2DAT)): 12%

Compound: O=C(NC(=O)c1c(F)cccc1F)Nc1ccc(OC(F)(F)C(F)OC(F)(F)F)c(Cl)c1 (centres unmarked) [Novaluron]
- Average CFU (Yersinia entomophaga; 0.1 mg insecticide): 528 CFU
- Average CFU (Yersinia entomophaga; 1.0 mg insecticide): 452 CFU
- % Mort. Chem. (cabbage looper [1]; cabbage looper, Novaluron 1 mg/L, 5 DAT): 11%
- LT50 Chem. (cabbage looper [1]; cabbage looper, Novaluron alone 1 mg/L): 7.55 days
- LT50 (95% confidence intervals) in days (cabbage looper [1]; in vivo): 7.55 (7.01-8.13) days
- LT50 Chem. (cabbage looper [3]; novaluron 1 mg/L): 7.31 days
- % Mort. Chem. (cabbage looper [3]; novaluron 1 mg/L, 6 DAT): 0%
- mortality at 1 µg/mL (cabbage looper [2]; 120 h, read-out: % Mortality (5DAT)): 11%
- mortality at 1 µg/mL (cabbage looper [2]; 144 h, read-out: % Mortality (6DAT)): 21%
- LT50 (95% confidence intervals) in days (black cutworm [4]; 3rd instar, novaluron […], isolate O43NEW 1×10^4 cfu/mL): 9.40 (8.58-10.32) days
- LT50 Chem. (black cutworm [4]; black cutworm, Novaluron alone […]): 9.40 days

Compound: COC(=O)N(C(=O)N1CO[C@@]2(C(=O)OC)Cc3cc(Cl)ccc3C2=N1)c1ccc(OC(F)(F)F)cc1 [Indoxacarb]
- Average CFU (Yersinia entomophaga; 0.2 mg insecticide): 452 CFU
- Average CFU (Yersinia entomophaga; 1.1 mg insecticide): 477 CFU
- LT50 (95% confidence intervals) (diamondback moth; 2nd instar diamondback moth, O43NEW filtrate 1%, alone or combined): 3.47 days
- LT50 Chem. (diamondback moth; Diamondback moth): 3.47 days
- LT50 Chem. (cabbage looper [3]; indoxacarb 0.53 mg/L): 11.98 days
- % Mort. Chem. (cabbage looper [3]; indoxacarb 0.53 mg/L, 9 DAT): 25%
- % Mortality (2DAT) (cabbage looper [3]; cabbage looper, indoxacarb 0.53 mg/L, undiluted O43NEW filtrate, 2 DAT, Abbott's corrected): 0%
- % Mortality (6DAT) (cabbage looper [3]; cabbage looper, indoxacarb 0.53 mg/L, undiluted O43NEW filtrate, 6 DAT, Abbott's corrected): 15%
- % Mortality (7DAT) (cabbage looper [3]; cabbage looper, indoxacarb 0.53 mg/L, undiluted O43NEW filtrate, 7 DAT, Abbott's corrected): 15%
- % Mortality (8DAT) (cabbage looper [3]; cabbage looper, indoxacarb 0.53 mg/L, undiluted O43NEW filtrate, 8 DAT, Abbott's corrected): 25%
- % Mortality (9DAT) (cabbage looper [3]; cabbage looper, indoxacarb 0.53 mg/L, undiluted O43NEW filtrate, 9 DAT, Abbott's corrected): 25%
- % Mortality (12DAT) (cabbage looper [3]; cabbage looper, indoxacarb 0.53 mg/L, undiluted O43NEW filtrate, 12 DAT, Abbott's corrected): 61%
- % Mortality (14DAT) (cabbage looper [3]; cabbage looper, indoxacarb 0.53 mg/L, undiluted O43NEW filtrate, 14 DAT, Abbott's corrected): 59%
- LT50 (95% confidence intervals) in days (black cutworm [5]; 2nd instar black cutworm, O43NEW undiluted filtrate, alone or combined): 10.99 (9.75-12.42) days
- % Mortality (2DAT) (black cutworm [5]; 2nd instar black cutworm, O43NEW undiluted filtrate, alone or combined, 2 DAT, Abbott's corrected): 0%
- % Mortality (6DAT) (black cutworm [5]; 2nd instar black cutworm, O43NEW undiluted filtrate, alone or combined, 6 DAT, Abbott's corrected): 0%
- % Mortality (8DAT) (black cutworm [5]; 2nd instar black cutworm, O43NEW undiluted filtrate, alone or combined, 8 DAT, Abbott's corrected): 11%
- % Mortality (9DAT) (black cutworm [5]; 2nd instar black cutworm, O43NEW undiluted filtrate, alone or combined, 9 DAT, Abbott's corrected): 21%
- LT50 Chem. (black cutworm [5]; Black cutworm): 10.99 days
- % Mort. Chem. (black cutworm [5]; Black cutworm, 9 DAT): 21%
- % Mortality (5DAT) (fall armyworm [6]; [8]): 5%
- % Mortality (6DAT) (fall armyworm [6]; [8]): 10%
- LT50 (95% confidence intervals) (fall armyworm [6]; [8]): 9.65 days
- LT50 (95% confidence intervals) in days (fall armyworm [6]; 3rd instar, indoxacarb […], isolate O23ZMJ 1×10^5 cfu/mL): 5.14 (4.67-5.66) days
- % Mort. Chem. (fall armyworm [6]; Indoxacarb 0.53 mg/L, 6 DAT): 10%
- LT50 Chem. (fall armyworm [6]; Indoxacarb alone 0.53 mg/L): 9.65 days
- LT50 Chem. (fall armyworm [6]; Indoxacarb alone […]): 5.14 days
- % Mortality (3DAT) (black cutworm [4]; [9]): 11%
- % Mortality (4DAT) (black cutworm [4]; [9]): 6%
- % Mortality (5DAT) (black cutworm [4]; [9]): 0%
- % Mortality (6DAT) (black cutworm [4]; [9]): 6%
- LT50 (95% confidence intervals) in days (black cutworm [4]; [9]): 7.64 (7.01-8.32) days
- % Mort. Chem. (black cutworm [4]; black cutworm, Indoxacarb 0.53 mg/L, 5 DAT): 0%
- LT50 Chem. (black cutworm [4]; black cutworm, Indoxacarb alone 0.53 mg/L): 7.64 days

Compound: CNC(=O)Oc1cccc2ccccc12 [Carbaryl]
- Average CFU (Yersinia entomophaga; 1.0 mg insecticide): 456 CFU
- Average CFU (Yersinia entomophaga; 9.6 mg insecticide): 459 CFU
- % Mort. Chem. (cabbage looper [1]; cabbage looper, Carbaryl 100 mg/L, 2 DAT): 21%
- LT50 Chem. (cabbage looper [1]; cabbage looper, Carbaryl alone 100 mg/L): 3.60 days
- % Mortality (1DAT) (cabbage looper [1]; in vivo): 4%
- % Mortality (2DAT) (cabbage looper [1]; in vivo): 21%
- LT50 (95% confidence intervals) in days (cabbage looper [1]; in vivo): 3.60 (3.12-4.17) days
- % Mortality (4DAT) (tobacco budworm; in vivo): 50%
- % Mortality (5DAT) (tobacco budworm; in vivo): 65%
- LT50 (95% confidence intervals) in days (tobacco budworm; in vivo): 4.06 (3.65-4.52) days
- % Mort. Chem. (tobacco budworm; tobacco budworm, Carbaryl 100 mg/L, 4 DAT): 50%
- LT50 Chem. (tobacco budworm; tobacco budworm, Carbaryl alone 100 mg/L): 4.06 days

Compound: N#Cc1nn(-c2c(Cl)cc(C(F)(F)F)cc2Cl)c(N)c1[S+]([O-])C(F)(F)F (centres unmarked) [Fipronil]
- LT50 (95% confidence intervals) in days (fall armyworm [7]; 3rd instar fall armyworm, O43NEW undiluted filtrate, alone or combined): 51.74 (34.99-79.58) days
- LT50 Chem. (fall armyworm [7]; Fall armyworm): 51.74 days
- % Mort. Chem. (fall armyworm [7]; Fall armyworm, 8 DAT): 0%
- LT50 (95% confidence intervals) in days (fall armyworm [6]; 3rd instar, fipronil 4 mg/L, isolate O24G3R 1×10^5 cfu/mL): 6.71 (6.15-7.32) days
- LT50 (95% confidence intervals) in days (fall armyworm [6]; 3rd instar, fipronil 4 mg/L, isolate O24KEK 1×10^5 cfu/mL): 6.71 (6.15-7.31) days
- LT50 (95% confidence intervals) (fall armyworm [6]; 3rd instar, fipronil 4 mg/L, isolate O43NEW 1×10^5 cfu/mL): 8.86 days
- LT50 (95% confidence intervals) in days (fall armyworm [6]; 3rd instar, fipronil 4 mg/L, isolate O333A4 1×10^5 cfu/mL): 6.71 (6.15-7.31) days
- mortality at 4 µg/mL (fall armyworm [6]; 96 h, read-out: % Mortality (4DAT), 3rd instar, fipronil 4 mg/L, isolate O24G3R 1×10^5 cfu/mL): 5%
- mortality at 4 µg/mL (fall armyworm [6]; 96 h, read-out: % Mortality (4DAT), 3rd instar, fipronil 4 mg/L, isolate O24KEK 1×10^5 cfu/mL): 5%
- mortality at 4 µg/mL (fall armyworm [6]; 96 h, read-out: % Mortality (4DAT), 3rd instar, fipronil 4 mg/L, isolate O333A4 1×10^5 cfu/mL): 5%
- mortality at 4 µg/mL (fall armyworm [6]; 120 h, read-out: % Mortality (5DAT), 3rd instar, fipronil 4 mg/L, isolate O24G3R 1×10^5 cfu/mL): 21%
- mortality at 4 µg/mL (fall armyworm [6]; 120 h, read-out: % Mortality (5DAT), 3rd instar, fipronil 4 mg/L, isolate O24KEK 1×10^5 cfu/mL): 21%
- mortality at 4 µg/mL (fall armyworm [6]; 120 h, read-out: % Mortality (5DAT), 3rd instar, fipronil 4 mg/L, isolate O43NEW 1×10^5 cfu/mL): 5%
- mortality at 4 µg/mL (fall armyworm [6]; 120 h, read-out: % Mortality (5DAT), 3rd instar, fipronil 4 mg/L, isolate O333A4 1×10^5 cfu/mL): 21%
- mortality at 4 µg/mL (fall armyworm [6]; 144 h, read-out: % Mortality (6DAT), 3rd instar, fipronil 4 mg/L, isolate O24KEK 1×10^5 cfu/mL): 39%
- mortality at 4 µg/mL (fall armyworm [6]; 144 h, read-out: % Mortality (6DAT), 3rd instar, fipronil 4 mg/L, isolate O43NEW 1×10^5 cfu/mL): 20%
- mortality at 4 µg/mL (fall armyworm [6]; 144 h, read-out: % Mortality (6DAT), 3rd instar, fipronil 4 mg/L, isolate O333A4 1×10^5 cfu/mL): 39%
- % Mort. Chem. (fall armyworm [6]; Fipronil 4 mg/L, 4 DAT (row with O24KEK)): 5%
- % Mort. Chem. (fall armyworm [6]; Fipronil 4 mg/L, 4 DAT (row with O333A4)): 5%
- % Mort. Chem. (fall armyworm [6]; Fipronil 4 mg/L, 5 DAT (row with O24G3R)): 21%
- % Mort. Chem. (fall armyworm [6]; Fipronil 4 mg/L, 5 DAT (row with O43NEW)): 5%
- LT50 Chem. (fall armyworm [6]; Fipronil alone 4 mg/L): 8.86 days and 6.71 days
